Results: PubChem BioAssay AID2060355 (Molecular Pharmacology Branch, DTP, NCI, 2025)

System: 485368-065-R4-J2-PDC spheroids with HUVEC/MSC, viability
Experiment: Anticancer human tumor 485368-065-R4-J2-PDC patient-derived pancreatic carcinoma cell line growth inhibition [TAK]
Conditions: for IC50: curve of first compound; for viability, T/C: stronger effect = lower value
Description: Combinatorial screen of targeted agents with TAK-243 and ipatasertib in multi-cell type tumor spheroids
A high-throughput screen of multi-cell type tumor spheroids was designed to identify active combinations of targeted small molecules and TAK-243 or ipatasertib. Complex spheroids include a stromal component modeled by human endothelial cells (HUVEC) and fibroblasts modeled by human mesenchymal stem cells (MSCs). The concentration ranges selected for each drug and investigational agent were based upon clinically achievable concentrations if the clinical Cmax of the agent was known.
Compounds. The drugs and investigational agents: TAK-243 (785004), ipatasertib (767898), everolimus (733504), selumetinib (741078), bortezomib (756655), trametinib (758246), ixazomib (758254), vemurafenib (761431), dabrafenib (764134), sapanisertib (764658), alpelisib (765974), and copanlisib (816437), were obtained from the National Cancer Institute (NCI) Developmental Therapeutics Program Chemical Repository. The FDA-approved anticancer drug set is available from the NCI Developmental Therapeutics Program. […] The stock solutions were prepared in dimethyl sulfoxide (DMSO, Sigma-Aldrich, St. Louis, MO, cat. D2650) at 800-fold the tested concentration and stored at -70 degrees C prior to their use. All drugs and investigational agents were tested over a range starting from a high concentration at or near the clinical Cmax and decreasing in half-log increments. If the clinical Cmax for an agent had not been determined, the highest concentration tested was 10 microM.
NCI60 Cell Culture. NCI60 cell lines were obtained from the NCI Developmental Therapeutics Program Tumor Repository. For each lot of cells, the Repository performed Applied Biosystems AmpFLSTR Identifiler testing with PCR amplification to confirm consistency with the published Identifier STR profile for each cell line. Cells were kept in continuous culture for no more than 20 passages. The optimal seeding densities for each of the cell lines at each time point assessed were determined prior to performing the concentration response studies. Briefly, the NCI60 human tumor lines were grown as monolayers in RPMI 1640 medium supplemented with 10% FBS and 2 mmol/L L-glutamine.
An additional 2 lines were from the NCI60 cell line panel including melanomas, MALME-3M and SK-MEL-2. Pooled donor human umbilical vein endothelial cells (HUVEC, Lonza, cat. CC-2519) and human mesenchymal stem cells (hMSC, Lonza, cat. PT-2501) were purchased from Lonza (Walkersville, MD).
PDMR cell lines were grown in complete medium (DC medium): Dulbecco's modified Eagle's medium (DMEM)/F12 supplemented with 5% fetal bovine serum (FBS), 2 mM L-glutamine, 100 U/mL penicillin and 100 µg/ml streptomycin, 0.4 µg/ml hydrocortisone, 10 ng/ml epidermal growth factor (EGF) recombinant human protein, 24 µg/mL adenine, and 0.1 mg/mL primocin. During culture from frozen stock vials, PDMR cells were cultured in the same medium containing 10 µM Y-27632 (see Table 3). The PDCs were cultured in complete DMEM/F12 media without 10 microM Y-27632 dihydrochloride for at least two passages prior to the screen. The pooled donor HUVEC and hMSC were cultured in endothelial cell growth medium 2 (PromoCell, Heidelberg, Germany, cat. C-22011) and mesenchymal stem cell growth medium 2 (PromoCell, cat. C-28009), respectively. For all experiments, HUVEC and hMSC were used at passages </=5.
For the pre-screen, cell seeding densities were determined from a titration spanning the range from 5,000 to 313 cells per well. The mct-spheroids including 60% malignant cells, 25% HUVEC and 15% MSC dispensed as a mixture into U-bottom Ultra-Low Attachment 384-well plates (Corning, NY)
High-throughput Drug Combination Screening.
Prior to their inoculation into 384-well plates, malignant cells, HUVEC, and hMSC were removed from T flasks using TrypLE express (Thermo Fisher Scientific, cat. 12605036) and harvested by centrifugation for 5 min at 233 x g. […]

[1] = second compound 0.3 µM, first compound 0.00949 µM
[2] = second compound 0.3 µM, first compound 0.03 µM
[3] = second compound 0.949 µM, first compound 0.00949 µM
[4] = second compound 0.949 µM, first compound 0.03 µM
[5] = second compound 3 µM, first compound 0.00949 µM
[6] = second compound 3 µM, first compound 0.03 µM
[7] = second compound 9.49 µM, first compound 0.00949 µM
[8] = second compound 9.49 µM, first compound 0.03 µM
[9] = second compound 30 µM, first compound 0.00949 µM
[10] = second compound 30 µM, first compound 0.03 µM
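Further: spheroids exposed to compounds for seven days before readout.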
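Wherever viability, T/C is given: 100% = DMSO vehicle control wells.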

CC(=O)Nc1cccc(-n2c(=O)n(C3CC3)c(=O)c3c(Nc4ccc(I)cc4F)n(C)c(=O)c(C)c32)c1 + CC(C)NCC(C(=O)N1CCN(c2ncnc3c2C(C)CC3O)CC1)c1ccc(Cl)cc1
IC50 (second compound 0.3 µM): 3.49 nM | IC50 (second compound 0.949 µM): 1.61 nM | IC50 (second compound 3 µM): 1.23 nM | IC50 (second compound 9.49 µM): 0.596 nM | IC50 (second compound 30 µM): 0.316 nM | viability, T/C (second compound 0.3 µM, first compound 94.9 pM): 89.9% | viability, T/C (second compound 0.3 µM, first compound 0.0003 µM): 76.2% | viability, T/C (second compound 0.3 µM, first compound 0.000949 µM): 72.8% | viability, T/C (second compound 0.3 µM, first compound 0.003 µM): 51.8% | viability, T/C [1]: 33.5% | viability, T/C [2]: 20.4% | viability, T/C (second compound 0.949 µM, first compound 94.9 pM): 94.2% | viability, T/C (second compound 0.949 µM, first compound 0.0003 µM): 92.3% | viability, T/C (second compound 0.949 µM, first compound 0.000949 µM): 61.8% | viability, T/C (second compound 0.949 µM, first compound 0.003 µM): 34.3% | viability, T/C [3]: 19.2% | viability, T/C [4]: 12.7% | viability, T/C (second compound 3 µM, first compound 94.9 pM): 96.6% | viability, T/C (second compound 3 µM, first compound 0.0003 µM): 88.2% | viability, T/C (second compound 3 µM, first compound 0.000949 µM): 58.3% | viability, T/C (second compound 3 µM, first compound 0.003 µM): 22% | viability, T/C [5]: 12% | viability, T/C [6]: 8.82% | viability, T/C (second compound 9.49 µM, first compound 94.9 pM): 89.8% | viability, T/C (second compound 9.49 µM, first compound 0.0003 µM): 70.1% | viability, T/C (second compound 9.49 µM, first compound 0.000949 µM): 36.3% | viability, T/C (second compound 9.49 µM, first compound 0.003 µM): 15.8% | viability, T/C [7]: 10.2% | viability, T/C [8]: 7.89% | viability, T/C (second compound 30 µM, first compound 94.9 pM): 70.6% | viability, T/C (second compound 30 µM, first compound 0.0003 µM): 50% | viability, T/C (second compound 30 µM, first compound 0.000949 µM): 31.5% | viability, T/C (second compound 30 µM, first compound 0.003 µM): 13.8% | viability, T/C [9]: 10.2% | viability, T/C [10]: 7.05%

CC(C)CC(NC(=O)C(Cc1ccccc1)NC(=O)c1cnccn1)B(O)O (stereo not given) + CC(C)NCC(C(=O)N1CCN(c2ncnc3c2C(C)CC3O)CC1)c1ccc(Cl)cc1
IC50 (second compound 0.3 µM): 5.9 nM | IC50 (second compound 0.949 µM): 5.92 nM | IC50 (second compound 3 µM): 5.94 nM | IC50 (second compound 9.49 µM): 5.13 nM | IC50 (second compound 30 µM): 4.63 nM | viability, T/C (second compound 0.3 µM, first compound 31.6 pM): 98.2% | viability, T/C (second compound 0.3 µM, first compound 0.0001 µM): 96.9% | viability, T/C (second compound 0.3 µM, first compound 0.000316 µM): 90.6% | viability, T/C (second compound 0.3 µM, first compound 0.001 µM): 92.2% | viability, T/C (second compound 0.3 µM, first compound 0.00316 µM): 108% | viability, T/C (second compound 0.3 µM, first compound 0.01 µM): 10% | viability, T/C (second compound 0.949 µM, first compound 31.6 pM): 94.5% | viability, T/C (second compound 0.949 µM, first compound 0.0001 µM): 94.3% | viability, T/C (second compound 0.949 µM, first compound 0.000316 µM): 103% | viability, T/C (second compound 0.949 µM, first compound 0.001 µM): 98.4% | viability, T/C (second compound 0.949 µM, first compound 0.00316 µM): 102% | viability, T/C (second compound 0.949 µM, first compound 0.01 µM): 9.62% | viability, T/C (second compound 3 µM, first compound 31.6 pM): 94.3% | viability, T/C (second compound 3 µM, first compound 0.0001 µM): 101% | viability, T/C (second compound 3 µM, first compound 0.000316 µM): 98.5% | viability, T/C (second compound 3 µM, first compound 0.001 µM): 92.2% | viability, T/C (second compound 3 µM, first compound 0.00316 µM): 94.9% | viability, T/C (second compound 3 µM, first compound 0.01 µM): 12.9% | viability, T/C (second compound 9.49 µM, first compound 31.6 pM): 97% | viability, T/C (second compound 9.49 µM, first compound 0.0001 µM): 94.2% | viability, T/C (second compound 9.49 µM, first compound 0.000316 µM): 91.1% | viability, T/C (second compound 9.49 µM, first compound 0.001 µM): 95.2% | viability, T/C (second compound 9.49 µM, first compound 0.00316 µM): 79.7% | viability, T/C (second compound 9.49 µM, first compound 0.01 µM): 8.65% | viability, T/C (second compound 30 µM, first compound 31.6 pM): 78.5% | viability, T/C (second compound 30 µM, first compound 0.0001 µM): 81.9% | viability, T/C (second compound 30 µM, first compound 0.000316 µM): 77.6% | viability, T/C (second compound 30 µM, first compound 0.001 µM): 78% | viability, T/C (second compound 30 µM, first compound 0.00316 µM): 71.2% | viability, T/C (second compound 30 µM, first compound 0.01 µM): 6.97%

Cn1cnc2c(F)c(Nc3ccc(Br)cc3Cl)c(C(=O)NOCCO)cc21 + CC(C)NCC(C(=O)N1CCN(c2ncnc3c2C(C)CC3O)CC1)c1ccc(Cl)cc1
IC50 (second compound 0.3 µM): 261 nM | IC50 (second compound 0.949 µM): 51 nM | IC50 (second compound 3 µM): 32.6 nM | IC50 (second compound 9.49 µM): 17.1 nM | IC50 (second compound 30 µM): 9.58 nM | viability, T/C [1]: 76.1% | viability, T/C [2]: 69.6% | viability, T/C (second compound 0.3 µM, first compound 0.0949 µM): 59% | viability, T/C (second compound 0.3 µM, first compound 0.3 µM): 48.5% | viability, T/C (second compound 0.3 µM, first compound 0.949 µM): 37% | viability, T/C (second compound 0.3 µM, first compound 3 µM): 23% | viability, T/C [3]: 70% | viability, T/C [4]: 56.2% | viability, T/C (second compound 0.949 µM, first compound 0.0949 µM): 42.9% | viability, T/C (second compound 0.949 µM, first compound 0.3 µM): 30.3% | viability, T/C (second compound 0.949 µM, first compound 0.949 µM): 21.7% | viability, T/C (second compound 0.949 µM, first compound 3 µM): 13.5% | viability, T/C [5]: 72.5% | viability, T/C [6]: 51.6% | viability, T/C (second compound 3 µM, first compound 0.0949 µM): 31.2% | viability, T/C (second compound 3 µM, first compound 0.3 µM): 19.4% | viability, T/C (second compound 3 µM, first compound 0.949 µM): 13.6% | viability, T/C (second compound 3 µM, first compound 3 µM): 10.7% | viability, T/C [7]: 60.4% | viability, T/C [8]: 40.6% | viability, T/C (second compound 9.49 µM, first compound 0.0949 µM): 24.1% | viability, T/C (second compound 9.49 µM, first compound 0.3 µM): 17.4% | viability, T/C (second compound 9.49 µM, first compound 0.949 µM): 10.9% | viability, T/C (second compound 9.49 µM, first compound 3 µM): 8.27% | viability, T/C [9]: 50.1% | viability, T/C [10]: 33.9% | viability, T/C (second compound 30 µM, first compound 0.0949 µM): 21.2% | viability, T/C (second compound 30 µM, first compound 0.3 µM): 15.5% | viability, T/C (second compound 30 µM, first compound 0.949 µM): 11.1% | viability, T/C (second compound 30 µM, first compound 3 µM): 9.61%
